According to patent US6541978B1, “Method, system and device for producing signals from a substance biological and/or chemical activity” (priority 1998, dated 2003):
Values joined by “and” are separate entries in the source; they are usually repeats but may differ in a detail not shown here. Equal entries are not always repeated.

Key:
skin of a guinea-pig = experiment: Guinea-pig cutaneous test (Evans blue marks); assay type: in vivo; conditions: 0.1 ml ponderal solution at 10^−6M injected under the skin; single injections
Description: As an example, with reference to FIG. 4, a presentation is given below of the test known under the name of guinea-pig cutaneous test and described in chapter 11 (p.346-351) in the second edition of “Immunology” edited by Jean-Francois Bach, coll. John Wiley & Sons; or further in the 3rd edition of “The handbook of Experimental Immunology” edited by D. M. Weir, coll. Blackwell, Ch. 21 “Passive cutaneous anaphylaxis (PCA)” by W. E. Brocklehurst; or further in the work edited by Williams & Chase entitled “Methods in IMMUNOLOGY and IMMUNOCHEMISTRY”—Vol. 5—Ch. 19 “Anaphylaxis”.
The guinea-pig is used when still alive, and is given a n intravenous injection of a blue colorant (Evans blue—Sigma E 2129) which fixes on the blood albumin.
The test is carried out by injecting under the skin of the animal prepared in this way, 0.1 ml of the solution whose activity is to be controlled. Nextone measures the diameter of the blue marks appearing around the points of injection. In order to do this the skin is scanned, and then the bitmap image file is recorded. Finally the sizes of the blue marks due to the reaction are evaluated.
In the example described, a control was carried out of the presence of signals characteristic of the biological activity of the acetylcholine neuromediator (ACh; Sigma A2661) in solution in a physiological solution, by analysing the effects o n the skin of a guinea-pig: […]

[1] = test system: isolated guinea-pig heart; experiment: Perfused isolated guinea-pig heart (Langendorff), injections of the substances; conditions: injection of substance 10^−6M
Description: As an example of a biological control system, an d referring to FIG. 2, a test will be described below derived from that known under the test name of a perfused isolated guinea-pig heart (or Langendorff experiment) and whose process is described in the work entitled: “Methods in Immunology and Immunochemistry” published by Williams and Chase, Academic Press 1976, particularly page 68; or further in the work entitled: “L'experimentation animate en cardiologie” INSERM Médecine-Science—Coll. Flammarion—Author Bernard […]—particularly Ch. 3.1 p.81 “Organe Isolé—Coceur Isolé selon Langendorff—Montage à pression coronaire constante”; or further in the work entitled “The isolated perfused Heart according to Langendorff” H. J. Döiring, H. Dehnart—Biomesstechnik—Verlag March GmbH, D-7806 March. In FIG. 2 one recognises the diagram known from the Langendorff experiment. The equipment described in these works has been completed by a transducer in the form of a bobbin 60 of a varnished copper wire of diameter 0.5 mm, with a diameter of 110 mm, a length of 40 mm and with an impedance of 4 ohms.
The fraction collector collected the tubes making it possible to measure the debit of the guinea-pig heart at the rate of 1 tube per minute. The buffer solution crossing the heart had the following composition: CaCl 2 mM, NaHCO3 25 mM, NaCl 118 mM, MgSO4 1.2 mM, KHPO4 1.2 mM, Glucose 11 mM, Pyruvate 2 mM.

## CC(=O)OCC[N+](C)(C)C [ACh, acetylcholine]
Skin of a guinea-pig
  Dia. in mm (diameter of the blue marks around the points of injection): 23 mm and 25 mm and 21 mm and 18 mm

## Cn1c(=O)c2c(ncn2C)n(C)c1=O [caffeine]
[1]; time 1 min
  quantity of the buffer solution recuperated in the collector tubes: 5.1 mL
[1]; time 2 min
  quantity of the buffer solution recuperated in the collector tubes: 5.0 mL
[1]; time 3 min
  quantity of the buffer solution recuperated in the collector tubes: 5.0 mL
[1]; time 4 min
  quantity of the buffer solution recuperated in the collector tubes: 4.9 mL
[1]; time 5 min
  quantity of the buffer solution recuperated in the collector tubes: 4.6 mL
[1]; time 6 min
  quantity of the buffer solution recuperated in the collector tubes: 4.2 mL
[1]; time 7 min
  quantity of the buffer solution recuperated in the collector tubes: 4.0 mL
[1]; time 8 min
  quantity of the buffer solution recuperated in the collector tubes: 4.1 mL
[1]; time 9 min
  quantity of the buffer solution recuperated in the collector tubes: 4.0 mL
[1]; time 10 min
  quantity of the buffer solution recuperated in the collector tubes: 4.2 mL
[1]; time 11 min
  quantity of the buffer solution recuperated in the collector tubes: 4.1 mL
[1]; time 12 min
  quantity of the buffer solution recuperated in the collector tubes: 4.3 mL
[1]; time 13 min
  quantity of the buffer solution recuperated in the collector tubes: 4.4 mL
[1]; time 14 min
  quantity of the buffer solution recuperated in the collector tubes: 4.5 mL
[1]; time 15 min
  quantity of the buffer solution recuperated in the collector tubes: 4.5 mL
[1]; time 20 min
  quantity of the buffer solution recuperated in the collector tubes: 4.6 mL
[1]; time 25 min
  quantity of the buffer solution recuperated in the collector tubes: 4.5 mL
[1]; time 30 min
  quantity of the buffer solution recuperated in the collector tubes: 4.5 mL

## CNc1ccc2oc(C[C@H]3O[C@@]4(CC[C@H]3C)O[C@H]([C@H](C)C(=O)c3ccc[nH]3)[C@H](C)C[C@H]4C)nc2c1C(=O)O [ionophoretic-calcium, ionophoretic-calcium A 23187]
[1]; time 1 min
  quantity of the buffer solution recuperated in the collector tubes: 5.1 mL
[1]; time 2 min
  quantity of the buffer solution recuperated in the collector tubes: 5.0 mL
[1]; time 3 min
  quantity of the buffer solution recuperated in the collector tubes: 5.2 mL
[1]; time 4 min
  quantity of the buffer solution recuperated in the collector tubes: 5.0 mL
[1]; time 5 min
  quantity of the buffer solution recuperated in the collector tubes: 4.9 mL
[1]; time 6 min
  quantity of the buffer solution recuperated in the collector tubes: 5.4 mL
[1]; time 7 min
  quantity of the buffer solution recuperated in the collector tubes: 5.6 mL
[1]; time 8 min
  quantity of the buffer solution recuperated in the collector tubes: 6.2 mL
[1]; time 9 min
  quantity of the buffer solution recuperated in the collector tubes: 6.4 mL
[1]; time 10 min
  quantity of the buffer solution recuperated in the collector tubes: 6.4 mL
[1]; time 11 min
  quantity of the buffer solution recuperated in the collector tubes: 6.2 mL
[1]; time 12 min
  quantity of the buffer solution recuperated in the collector tubes: 6.0 mL
[1]; time 13 min
  quantity of the buffer solution recuperated in the collector tubes: 6.0 mL
[1]; time 14 min
  quantity of the buffer solution recuperated in the collector tubes: 5.9 mL
[1]; time 15 min
  quantity of the buffer solution recuperated in the collector tubes: 6.0 mL
[1]; time 20 min
  quantity of the buffer solution recuperated in the collector tubes: 5.7 mL
[1]; time 25 min
  quantity of the buffer solution recuperated in the collector tubes: 5.4 mL
[1]; time 30 min
  quantity of the buffer solution recuperated in the collector tubes: 5.2 mL
